This is an account of results in patent publication US8697095B1, “Inhibition of replication of oncogenic herpesviruses” (priority 2004, dated 2014).

For one series, the system named is EBV. In words: Gardella gel antiviral assay, TPA-induced EBV replication in P3HR1 cells. It is filed as cell-based, Epstein-Barr virus (EBV). The conditions noted are these: P3HR1 cells with TPA.
Another series relates to MHV 68. In words: Cytopathic effect and virus yield reduction, MHV 68 in NIH3T12 cells. It is filed as cell-based, murine gamma herpesvirus 68 (MHV-68). (In general: Damage to the host cells serves as the signal in cytopathic effect assays.)
Another series deals with HVS. As to the kind of experiment: Cytopathic effect and virus yield reduction, HVS in owl monkey kidney cells. It is filed as cell-based, herpesvirus saimiri (HVS).
For series [1], the system named is NIH3T12 cells. In words: Cytotoxicity (monolayer growth and morphology) in NIH3T12 cells. The conditions noted are these: 0.6-10 μg/ml, 2 days. It is filed as cell-based, Murine. An excerpt: (§1) Because the observed effects might be due to a non-specific toxic effect of THC, the inventors tested whether THC alters cell division or morphology in NIH3T12 and owl monkey kidney (OMK) cells. […].

Series [2] concerns Owl monkey kidney (OMK) cells. In words: Cytotoxicity in owl monkey kidney (OMK) cells. It is filed as cell-based. The conditions noted are these: analogous experiment.
Text: as §1

For the next series, the system named is BCBL-1 cells. As to the kind of experiment: Cell division inhibition (cell counts) in BCBL-1 cells. The conditions noted are these: BCBL1, 48 h, BCBL-1, two days, read-out: 50% cell division inhibitory concentration. It is filed as cell-based. On the procedure:
(§2) The effect of higher THC concentrations on cell division was also determined. Exponentially growing BCBL-1 or NIH12 cells were cultured for two days in the presence of various concentrations of THC or DMSO and cell counts were determined. The 50% cell division inhibitory concentration of THC for BCBL-1 cells was around 33 μM. NIH3T12 cells were less sensitive and the 50% inhibitory concentration was around 99 μM (not shown).

The subject of series [3] is NIH3T12 cells. As to the kind of experiment: Cell division inhibition (cell counts) in NIH3T12 cells. It is filed as cell-based, Murine. Particulars: Mus musculus, 48 h, NIH3T12, two days, read-out: 50% cell division inhibitory concentration. On the procedure: as §2
The test system of series [4] is HSV-1. In words: HSV-1 plaque formation and virus yield in NIH3T12 cells. It is filed as cell-based.
The test system of series [5] is HSV-1. In words: HSV-1 replication in OMK cells. In kind it is cell-based. On the procedure: Control cultures were treated with […]. IC50 was determined by measuring virus titers in THC treated and control samples after one cycle of freeze-thawing of the cultures. Additional controls were uninfected cells grown in the presence of THC or DMSO. THC or DMSO were present throughout the experiment.
The inventors next examined whether or not the THC inhibitory effect can be observed against other herpesviruses and tested whether drug treatment suppresses the replication of the alpha herpesvirus, HSV-1. […] . […] HSV-1 replication in OMK was also unaffected by THC in an analogous experiment (not shown).

Series [6] relates to CMV immediate early promoter. As to the kind of experiment: Dual luciferase promoter assay, control CMV promoter in NIH3T12 cells. It is filed as cell-based. Particulars: 5 μg/ml, 48 hours. An excerpt: (§3) FIG. 3 is a table showing the relative luciferase activity of extracts from control and THC treated cells. […] cells co-transfected with MHV 68 ORF 50 plus CMV control (top rows). BCBL-1 cells were co-transfected with the KSHV ORF 50 plus CMV control (bottom rows). Data represents averages from three independent co-transfection experiments.
(§4) A DNA fragment corresponding to the promoter region upstream of the mapped mRNAs was cloned into the basic firefly luciferase vector (Promega, Inc, Madison Wis.) to evaluate the effect of THC on the KSHV ORF 50 promoter. To assay the effect of THC on the MHV 68 ORF 50 gene, a DNA fragment containing the 0.4 kb full length ORF 50 promoter (nucleotides 66242-66652) cloned upstream of the firefly luciferase was utilized. About 5 μg KSHV ORF 50 firefly plasmid DNA was transfected into BCBL-1 cells. About 5 μg MHV 68 ORF 50 firefly plasmid DNA was transfected Into NIH312 cells. Control renilla luciferase expression vector (under the control of the CMV immediate early promoter) was included and co-transfected along with the ORF 50 reporter constructs. […] Luciferase activities were determined using a dual luminometer.
(§5) To evaluate the effect of THC on the MHV 68 and KSHV ORF 50 promoters, luciferase reporter assays were performed. […] Luciferase activities were determined using a dual luminometer. […]

The next series has as its system KSHV ORF 50 promoter. In words: Dual luciferase promoter assay, KSHV ORF 50 promoter in BCBL-1 cells. It is filed as cell-based. The conditions noted are these: 5 μg/ml, 48 hours.
Text: as §3, §4, §5

Series [7] concerns CMV immediate early promoter. In words: Dual luciferase promoter assay, control CMV promoter in BCBL-1 cells. It is filed as cell-based. The conditions noted are these: 5 μg/ml.
Text: as §3, §4, §5

The subject of series [8] is KSHV. As to the kind of experiment: Gardella gel antiviral assay, KSHV DNA replication in BCBL-1 cells.
The subject of another series is KSHV, MHV 68. Particulars: FIG. 4 comparison; cited from earlier work.
The conditions of series [9]: cited from earlier work.
Series [10] has as its system KSHV.
Procedure: BCBL-1 cells were incubated with or without THC and in the presence of these compounds.

Values joined by “and” are separate entries in the source; they are usually repeats but may differ in a detail not shown here. Equal entries are not always repeated. “Also recorded” adds a separate entry of the source.

With `CCCCCc1cc(O)c2c(c1)OC(C)(C)[C@@H]1CCC(C)=C[C@@H]21` [THC, Δ-9 Tetrahydrocannabinol], the “Effect on EBV linear DNA synthesis” value with EBV (autoradiogram) is “inhibited EBV linear DNA synthesis”. For the same compound, the IC50 with EBV (human gammaherpesvirus 4, P3HR-1, read-out: 50% inhibitory concentration (IC50), EBV linear DNA synthesis) is ~0.9 µg/mL and ~3.1 µM; in the series with MHV 68 (Gammaherpesvirinae sp., in Mus musculus, 48 h, read-out: 50% inhibitory concentration (IC50), MHV 68 virus yield), ~0.6 µg/mL and ~1.9 µM; in the series on BCBL-1 cells, about 33 µM; in the series on NIH3T12 cells [3], about 99 µM; in the series with KSHV [8] (Human gammaherpesvirus 8, BCBL1, 72 h, read-out: 50% inhibitory concentration (IC50), KSHV linear DNA), 1 µg/mL and ~3.3 µM. Besides, the “Cytopathic effect of MHV 68, appearance of infected cells” value is “intermediate between uninfected cells and the full cytopathic effect” with MHV 68 (0.6 μg/ml, 48 hours, NIH3T12); “indistinguishable from uninfected control cells” with MHV 68 (1.25 μg/ml or higher, 48 hours, NIH3T12). Also, in the series with MHV 68 (10 μg/ml, 48 hours, NIH3T12), the “Inhibition of virus yield” value is reported as “over 300 fold”. The “Potency and selectivity against MHV 68 compared with acyclovir, ganciclovir and foscarnet” value in the series on MHV 68 (FIG. 4 comparison) was “even more potent and selective”. Besides, the “Effect on MHV 68 virus yield / replication” value with MHV 68 (NIH3T12 cells) was “inhibits MHV 68 virus yield; also recorded: highly significantly inhibited; also recorded: strongly inhibited”. For the same compound, the “HVS virus yield reduction / replication” value with HVS is “strongly inhibited”. Further, the “Cell growth and morphology” value with NIH3T12 cells [1] is “no altered morphology”. The Toxicity result in series [2] is “no toxicity”. Further, in the series on HSV-1 [4] (0.6-10 μg/ml, 3 days, NIH3T12), the HSV-1 plaque development entry is “indistinguishable from those in control cultures”. Moreover, the “Effect on HSV-1 virus yield” value with HSV-1 [4] (NIH3T12, multiplicity of 2, 24 hours) is given as “no significant inhibitory effect”. The HSV-1 replication result in the series with HSV-1 [5] was “unaffected”. Besides, the “Reduction of control CMV promoter activity” value in series [6] is 35%. The “Inhibition of KSHV ORF 50-driven luciferase activity” value in the series with KSHV ORF 50 promoter is listed as about 4 fold. For the same compound, the “Effect on co-transfected CMV promoter” value in series [7] is “slightly stimulated”. The “Potency and selectivity against KSHV compared with known antiviral drugs” value in the series with KSHV [8] (FIG. 4 comparison) is “potent and selective antiviral agent”.

Regarding `Nc1ccn(C[C@@H](CO)OCP(=O)(O)O)c(=O)n1` [Cidofovir], the “Relative potency in in vitro antiviral experiments” value in the series on KSHV, MHV 68 was “most potent”. Further, in series [9], the “Side effects in humans” value was “toxic to the kidney”.

Consider SR144528, for which the “Effect on spontaneous KSHV reactivation” value with KSHV [10] (BCBL-1, without THC) was “no effect”. Also, the “Reversal of inhibition of linear DNA synthesis by THC” value in the series on KSHV [10] (both antagonists, 1.25 μg/ml THC) is “reversed”. Further, the “Reversal of THC inhibition of KSHV DNA synthesis” value with KSHV [10] (single receptor antagonist) is “not reversed”.
